For 7 compounds, ring closure, isolated yield results are on record in article PMC9502870.

The series in a line: Intramolecular Nicholas reaction: C-O or C-N bond formation between OH/NHR nucleophile and Co2(CO)6-stabilised propargyl cation (from propargylic OMe), BF3·Et2O 1.3-8 equiv, 0 °C to rt. The following applies: the molecule shown is the open-chain precursor, 10-membered ring, DCM, 1.0 mM, 25.0 °C.

For the compound `COCC#Cc1sc2ccccc2c1C#CCCNS(=O)(=O)c1ccccc1[N+](=O)[O-]` [12a -> 13a], the ring closure, isolated yield (1.0 h) came to 46%.

With `COCC#Cc1sc2ccccc2c1C#CCCNS(=O)(=O)c1ccc(N)cc1` [12b (free NH2, no cyclization)], the ring closure, isolated yield was 0%.

Turning to `COCC#Cc1sc2ccccc2c1C#CCCNCc1ccccc1` [17a -> 18 (BF3·Et2O)], for the setting “20.0 h”, the ring closure, isolated yield came out at 4%.

As for `COCC#Cc1sc2ccccc2c1C#CCCNS(=O)(=O)c1ccc(C)cc1` [NHTs Co-complex -> 13c (ref 42)], the ring closure, isolated yield was 76%.

As to `C#CCCCC(=O)Nc1ccc(S(=O)(=O)NCCC#Cc2c(C#CCOC)sc3ccccc23)cc1` [12c -> 13b], the ring closure, isolated yield (1.0 h) was determined as 63%.

For `COCC#Cc1sc2ccccc2c1C#CCCNC(=O)c1ccccc1` [17b (no macrocycle; pyrroline 19 formed)], under “2.0 h”, the ring closure, isolated yield worked out at 0%.

Consider `COCC#Cc1sc2ccccc2c1C#CCC(O)CC(=O)OC` (stereo not shown) [4 -> 5], for which the ring closure, isolated yield (1.0 h) worked out at 51%.
